Results on one compound are retold here after patent US11485720B2, “Anti-infective agents” (University of Dundee, priority 2016, dated 2022).

The subject of one experiment is Cryptosporidium parvum. In words: In vitro Crytosporidium inhibition assay. It is filed as cell-based. Conditions: Cryptosporidium parvum; read-out: Cryptosporidium parvum pEC50 (converted). From the text:
Assay Method for Measurement of In Vitro Inhibition of Crytosporidium.
These experiments were run in accordance with the method of Besssoff et. al. Antimicrob. Agents Chemother. 2013, 57:1804-1814. Results from these experiments are provided in the Experimental Results hereinafter.

The test system of a further experiment is Leishmania donovani. As to the kind of experiment: Leishmania donovani intramacrophage inhibition assay (Ld-INMAC). It is filed as cell-based. Conditions: intramacrophage amastigotes in THP-1 cells, read-out: Ld-INMAC pEC50 (converted). As to the method:
Assay Method for Measurement of In Vitro Inhibition of Leishmania donovani.
These experiments were run in accordance with the method as detailed herein and results from these experiments are provided in the Experimental Results hereinafter.
The intramacrophage Leishmania assay was performed as described in de Rycker et al (Antimicrob Agents Chemother, 2013 July; 57(7):2913-22. doi: 10.1128/AAC.02398-12). Briefly, 1 μl of compound was pre-dispensed into 384 well sterile intermediary plates. For single point screening, amphotericin B was added to all wells of column 24 as a positive control (final concentration 2 μM) and DMSO to column 23. For potency determinations, ten-point, one in three dilution curves were created with the highest concentration being 50 μM and on each plate a control curve of amphotericin B was included. Controls were as follows: columns 11 and 12: DMSO, columns 23 and 24: amphotericin B (final concentration 2 μM). To the intermediary plates, 100 μl of THP-1 media was added and plates were shaken for >5 min to ensure complete mixing. THP-1 cells (8,000 per well, 50 μl) were plated into black clear-bottom 384 well plates (Corning) in presence of 10 nM PMA. After 20 min at room temperature, the plates were incubated at 37° C. under 5% CO2 in a humidified incubator for 75 h. The cells were then washed with […] sterile phosphate buffered saline (PBS) supplemented with 1 mM CaCl2, 0.5 mM MgCl2, 0.1% (w/v) bovine serum albumin (PBS-A) and amastigotes were added to all wells at a multiplicity of infection of 5 (40,000 amastigotes per well). After 40 min at room temperature, plates were returned to the incubator. Amastigotes were incubated in the presence of macrophages for 16 h. Any remaining extracellular amastigotes were subsequently removed with an overflow wash of 1 ml PBS-A per well (wash buffer is being aspirated from the top of the well as it is being dispensed) followed by addition of 25 μl of the compound pre-dilutions using a Matrix Hydra DT pipetting station. The final dilution of each compound was 200-fold. Plates were incubated for 72 h and then washed (250 μl PBS-A) and fixed (4% (v/v) formaldehyde-PBS, 30 min, room temperature). After fixation, the wells were washed with 250 μl PBS, stained (10 μg/ml DAPI, 0.4 μg ml-1 HCS Cellmask Deep Red in PBS+0.1% (v/v) Triton X-100, 30 min, room temperature) and washed with 250 μl PBS. Finally, PBS+0.05% (v/v) thimerosal was added to the wells, the plates were sealed and imaged on a high-content microscope (GE IN Cell 1000 or GE IN Cell 2000) using a 10× objective. Image analysis was carried out with GE IN Cell Analyzer 1000 Workstation using the “Multi Target Analysis” module. […]

The target of experiment [1] is T1, Plasmodium falciparum lysyl t-RNA synthetase (Pf-KRS1) (Plasmodium falciparum, UniProt Q8IDJ8).
T1 construct: Pf KRS1-; made in house; host or cells: E. coli BL21 (DE3)
As to the kind of experiment: Pf-KRS1 inhibition biochemical assay (Kinase-Glo, ATP depletion). Conditions: read-out: Pf-KRS pIC50 (converted). In a few lines:
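Recombinant Pf-KRS1 (75 nM working concentration) in HEPES/KOH/MgCl2/KCl buffer with 3 μM ATP, 60 μM L-lysine, 0.4 mg/ml yeast tRNA and pyrophosphatase; compounds at 50 μM–2.5 nM final. Reaction ran 5 h at room temperature, then remaining ATP was read by Kinase-Glo luminescence. IC50 came from nonlinear fits of % inhibition against controls.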
In general terms: Kinase-Glo measures the ATP left after a reaction by luminescence.

In another experiment the test system is THP-1 cells. As to the kind of experiment: THP-1 host cell count in intramacrophage Leishmania assay. Particulars: Homo sapiens, host cell toxicity, read-out: THP1 pEC50 (converted). It is filed as cell-based. On the procedure: The intramacrophage Leishmania assay was performed as described in de Rycker et al (Antimicrob Agents Chemother, 2013 July; 57(7):2913-22. doi: 10.1128/AAC.02398-12). Briefly, 1 μl of compound was pre-dispensed into 384 well sterile intermediary plates. For single point screening, amphotericin B was added to all wells of column 24 as a positive control (final concentration 2 μM) and DMSO to column 23. For potency determinations, ten-point, one in three dilution curves were created with the highest concentration being 50 μM and on each plate a control curve of amphotericin B was included. Controls were as follows: columns 11 and 12: DMSO, columns 23 and 24: amphotericin B (final concentration 2 μM). To the intermediary plates, 100 μl of THP-1 media was added and plates were shaken for >5 min to ensure complete mixing. THP-1 cells (8,000 per well, 50 μl) were plated into black clear-bottom 384 well plates (Corning) in presence of 10 nM PMA. After 20 min at room temperature, the plates were incubated at 37° C. under 5% CO2 in a humidified incubator for 75 h. The cells were then washed with […] sterile phosphate buffered saline (PBS) supplemented with 1 mM CaCl2, 0.5 mM MgCl2, 0.1% (w/v) bovine serum albumin (PBS-A) and amastigotes were added to all wells at a multiplicity of infection of 5 (40,000 amastigotes per well). After 40 min at room temperature, plates were returned to the incubator. Amastigotes were incubated in the presence of macrophages for 16 h. Any remaining extracellular amastigotes were subsequently removed with an overflow wash of 1 ml PBS-A per well (wash buffer is being aspirated from the top of the well as it is being dispensed) followed by addition of 25 μl of the compound pre-dilutions using a Matrix Hydra DT pipetting station. The final dilution of each compound was 200-fold. Plates were incubated for 72 h and then washed (250 μl PBS-A) and fixed (4% (v/v) formaldehyde-PBS, 30 min, room temperature). After fixation, the wells were washed with 250 μl PBS, stained (10 μg/ml DAPI, 0.4 μg ml-1 HCS Cellmask Deep Red in PBS+0.1% (v/v) Triton X-100, 30 min, room temperature) and washed with 250 μl PBS. Finally, PBS+0.05% (v/v) thimerosal was added to the wells, the plates were sealed and imaged on a high-content microscope (GE IN Cell 1000 or GE IN Cell 2000) using a 10× objective. Image analysis was carried out with GE IN Cell Analyzer 1000 Workstation using the “Multi Target Analysis” module. Settings for segmentation were as follows: nuclei: minimum area: 142.384 μm^2, sensitivity: 81, method: top-hat; cells: characteristic area: 2500 μm^2, sensitivity: 60, method: multiscale top-hat; organelles (amastigotes): granule size 1-3, 3 scales, sensitivity: 90, detection in entire cell. […]

T1 sequence (Q8IDJ8 entry or part of it, looked up, natural form): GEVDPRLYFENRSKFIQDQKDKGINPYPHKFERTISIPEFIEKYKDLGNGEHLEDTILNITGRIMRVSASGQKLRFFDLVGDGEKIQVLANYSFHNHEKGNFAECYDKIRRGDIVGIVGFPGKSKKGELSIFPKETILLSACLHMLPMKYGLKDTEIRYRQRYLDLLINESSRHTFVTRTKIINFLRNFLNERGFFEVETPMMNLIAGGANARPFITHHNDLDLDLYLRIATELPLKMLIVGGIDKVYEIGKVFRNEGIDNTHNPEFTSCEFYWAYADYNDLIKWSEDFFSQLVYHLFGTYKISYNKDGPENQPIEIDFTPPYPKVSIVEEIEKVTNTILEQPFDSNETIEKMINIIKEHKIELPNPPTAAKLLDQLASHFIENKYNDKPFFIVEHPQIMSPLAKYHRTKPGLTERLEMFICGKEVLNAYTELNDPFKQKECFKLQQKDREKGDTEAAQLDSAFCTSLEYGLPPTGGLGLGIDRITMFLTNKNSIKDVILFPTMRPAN

In the case of `O=C(NCC1CCCCC1)c1cc(=O)c2cc(F)cc(O)c2o1` [Example 70, N-(cyclohexylmethyl)-6-fluoro-8-hydroxy-4-oxo-4H-chromene-2-carboxamide], the figures for the EC50 in the experiment with Cryptosporidium parvum, with Leishmania donovani and in the experiment on THP-1 cells were 0.0398 µM, 15.8 µM and 50.1 µM, respectively. Further, the IC50 in experiment [1] is 0.0501 µM.
